Publication PMC8286840, “Identifying SARS-CoV-2 antiviral compounds by screening for small molecule inhibitors of Nsp3 papain-like protease” (Biochemical Journal, 2021)
Counter-ions that a name gives are not always drawn. Like-named read-outs stand apart in the source and are kept apart here. Where a SMILES comes first, the peptide text is derived from it. The star is where a group is joined. Cbz = O=C(OCc1ccccc1)*; CH2F = FC*

How the values were obtained:
[1] = molecular target: T1, SARS-CoV-2 PLpro (nsp3 1564–1878) (Severe acute respiratory syndrome coronavirus 2, UniProt P0DTD1); assay: biochemical; parameters: FRET-quenched peptide (Pro3) cleavage by PLpro, 10 min pre-incubation, slope over 20 min, normalised to no-compound control; details: low concentration screen, read-out: % of control remaining
[2] = molecular target: T1, SARS-CoV-2 PLpro (nsp3 1564–1878); assay: biochemical; parameters: FRET-quenched peptide (Pro3) cleavage by PLpro, 10 min pre-incubation, slope over 20 min, normalised to no-compound control; details: high concentration screen, read-out: % of control remaining

COc1ccc(C(=O)CC2(O)C(=O)Nc3c(Cl)ccc(Cl)c32)cc1 (centres unmarked) [YK-4-279]
remaining activity at 1.25 µM ([1]; Well no.=6444): 97.8%
remaining activity at 3.75 µM ([2]; Well no.=6444): 98.7%

O=c1ccccn1CC1(O)CCN(Cc2ccccc2)CC1 [YL0919]
remaining activity at 1.25 µM ([1]; Well no.=8009): 101%
remaining activity at 3.75 µM ([2]; Well no.=8009): 98.2%

COCC[n+]1c2c(n(Cc3cnccn3)c1C)C(=O)c1ccccc1C2=O [YM-155]
remaining activity at 1.25 µM ([1]; Well no.=6678): 94.8%
remaining activity at 3.75 µM ([2]; Well no.=6678): 91.4%

C[C@H](NC(=O)Cc1cc(F)cc(F)c1)C(=O)N[C@@H]1C(=O)N(C)c2ccccc2-c2ccccc21 [YO-01027]
remaining activity at 1.25 µM ([1]; Well no.=4687): 101%
remaining activity at 3.75 µM ([2]; Well no.=4687): 105%

COc1ccc(CCN(C)CCc2ccc(OC)c(OC)c2)cc1OC [YS-035 hydrochloride]
remaining activity at 1.25 µM ([1]; Well no.=1246): 103%
remaining activity at 3.75 µM ([2]; Well no.=1246): 102%

Cc1ccc(NC(=O)C(=O)NC2CC(C)(C)NC(C)(C)C2)cc1 [YYA-021]
remaining activity at 1.25 µM ([1]; Well no.=8084): 102%
remaining activity at 3.75 µM ([2]; Well no.=8084): 106%

COc1ccc(/C=C/c2cc(OC)cc(=O)o2)cc1 [Yangonin]
remaining activity at 1.25 µM ([1]; Well no.=3765): 90.2%
remaining activity at 3.75 µM ([2]; Well no.=3765): 90.6%

COC(=O)[C@@H]1[C@H]2C[C@H]3c4[nH]c5ccccc5c4CCN3C[C@@H]2CC[C@@H]1O [Yohimbine (Hydrochloride)]
remaining activity at 1.25 µM ([1]; Well no.=8337): 103%
remaining activity at 3.75 µM ([2]; Well no.=8337): 97.4%

COC(=O)[C@@H]1[C@H]2C[C@H]3c4[nH]c5ccccc5c4CCN3C[C@@H]2CC[C@@H]1O [Yohimbine hydrochloride]
remaining activity at 1.25 µM ([1]; Well no.=1198): 105%
remaining activity at 3.75 µM ([2]; Well no.=1198): 104%

COC(=O)CC[C@H](NC(=O)[C@H](CC(=O)OC)NC(=O)OCc1ccccc1)C(=O)N[C@H](C(=O)N[C@@H](CC(=O)OC)C(=O)CF)C(C)C [Z-DEVD-FMK]
remaining activity at 1.25 µM ([1]; Well no.=7172): 102%
remaining activity at 1.25 µM ([1]; Well no.=7636): 95.2%
remaining activity at 3.75 µM ([2]; Well no.=7172): 99.7%
remaining activity at 3.75 µM ([2]; Well no.=7636): 91.3%

CC[C@H](C)[C@H](NC(=O)OCc1ccccc1)C(=O)N[C@@H](CCC(=O)OC)C(=O)N[C@H](C(=O)N[C@@H](CC(=O)OC)C(=O)CF)[C@@H](C)O [Z-IETD-FMK] (Cbz-IE(OMe)TD(OMe)-CH2F)
remaining activity at 1.25 µM ([1]; Well no.=8262): 98.1%
remaining activity at 3.75 µM ([2]; Well no.=8262): 96.2%

O=C(N[C@@H](Cc1ccccc1)C(=O)CCl)OCc1ccccc1 [Z-L-Phe chloromethyl ketone]
remaining activity at 1.25 µM ([1]; Well no.=238): 100%
remaining activity at 3.75 µM ([2]; Well no.=238): 101%

COC(=O)C[C@H](NC(=O)[C@H](C)NC(=O)[C@@H](NC(=O)OCc1ccccc1)C(C)C)C(=O)CF [Z-VAD(OMe)-FMK] (Cbz-Val-Ala-Asp(OMe)-CH2F)
remaining activity at 1.25 µM ([1]; Well no.=7116): 101%
remaining activity at 1.25 µM ([1]; Well no.=8598): 100%
remaining activity at 3.75 µM ([2]; Well no.=7116): 94.5%
remaining activity at 3.75 µM ([2]; Well no.=8598): 100%

Cc1cc(C)nc(NS(=O)(=O)c2ccc(NC(=S)NC(=O)COc3ccc(Br)cc3Cl)cc2)n1 [ZCL278]
remaining activity at 1.25 µM ([1]; Well no.=7884): 98.2%
remaining activity at 1.25 µM ([1]; Well no.=8389): 102%
remaining activity at 3.75 µM ([2]; Well no.=7884): 99.2%
remaining activity at 3.75 µM ([2]; Well no.=8389): 96.3%

OCCOCCN1CCN(Cc2cccc(Oc3ccccc3)c2)CC1 [ZK756326 (dihydrochloride)]
remaining activity at 1.25 µM ([1]; Well no.=6178): 99.6%
remaining activity at 1.25 µM ([1]; Well no.=8117): 104%
remaining activity at 3.75 µM ([2]; Well no.=6178): 101%

Cc1cc(N=Nc2ccc3c(c2)CCC(=O)N3)c(N)cc1O [ZL0420]
remaining activity at 1.25 µM ([1]; Well no.=8468): 103%
remaining activity at 3.75 µM ([2]; Well no.=8468): 95.2%

CC(C)N(CCC(=O)c1ccc2ccccc2c1)Cc1ccccc1 [ZM39923 (hydrochloride)]
remaining activity at 1.25 µM ([1]; Well no.=8170): 104%
remaining activity at 3.75 µM ([2]; Well no.=8170): 98%

Nc1nc(NCCc2ccc(O)cc2)nc2nc(-c3ccco3)nn12 [ZM241385]
remaining activity at 1.25 µM ([1]; Well no.=7042): 106%
remaining activity at 1.25 µM ([1]; Well no.=8411): 90.6%
remaining activity at 3.75 µM ([2]; Well no.=7042): 104%
remaining activity at 3.75 µM ([2]; Well no.=8411): 88.3%

CC(C)N(CCC(=O)c1ccc2ccccc2c1)Cc1ccccc1 [ZM 39923 hydrochloride - 3-Benzylisopropylamino-1-naphthalen-2-yl-propan-1-one hydrochloride]
remaining activity at 1.25 µM ([1]; Well no.=2390): 96.3%
remaining activity at 3.75 µM ([2]; Well no.=2390): 98.1%

Cc1cc(F)c(Nc2ncnc3cc(OCc4ccccc4)ccc23)cc1O [ZM 323881 hydrochloride - 5-((7-Benzyloxyquinazolin-4-yl)amino)-4-fluoro-2-methylphenol hydrochloride]
remaining activity at 1.25 µM ([1]; Well no.=2538): 91.5%
remaining activity at 3.75 µM ([2]; Well no.=2538): 92%

Cc1ccc(NC(=O)c2cccc(N(C)C)c2)cc1NC(=O)c1ccc(O)cc1 [ZM 336372]
remaining activity at 1.25 µM ([1]; Well no.=5878): 103%
remaining activity at 3.75 µM ([2]; Well no.=5878): 102%

COc1cc2c(Nc3ccc(NC(=O)c4ccccc4)cc3)ncnc2cc1OCCCN1CCOCC1 [ZM 447439 - N-[4-[[6-Methoxy-7-[3-(4-morpholinyl)propoxy]-4-quinazolinyl]amino]phenyl]benzamide]
remaining activity at 1.25 µM ([1]; Well no.=2534): 97.3%
remaining activity at 3.75 µM ([2]; Well no.=2534): 96.9%

C=CC(=O)c1ccc2ccccc2c1 [ZM 449829 - 1-(2-Naphthalenyl)-2-propen-1-one]
remaining activity at 1.25 µM ([1]; Well no.=2388): 105%
remaining activity at 3.75 µM ([2]; Well no.=2388): 106%

FC(F)c1nc2ccccc2n1-c1nc(N2CCOCC2)nc(N2CCOCC2)n1 [ZSTK474]
remaining activity at 1.25 µM ([1]; Well no.=4623): 102%
remaining activity at 3.75 µM ([2]; Well no.=4623): 106%

COc1cc(C(=O)NS(=O)(=O)c2ccccc2C)ccc1Cc1cn(C)c2ccc(NC(=O)OC3CCCC3)cc12 [Zafirlukast]
remaining activity at 1.25 µM ([1]; Well no.=1762): 99.5%
remaining activity at 1.25 µM ([1]; Well no.=8579): 102%
remaining activity at 3.75 µM ([2]; Well no.=8579): 101%

Nc1ccn([C@H]2CC[C@@H](CO)O2)c(=O)n1 [Zalcitabine]
remaining activity at 1.25 µM ([1]; Well no.=7856): 92.9%
remaining activity at 3.75 µM ([2]; Well no.=7856): 98.9%

CC(C(=O)O)c1ccc2c(c1)CC(=O)c1ccccc1S2 (centres unmarked) [Zaltoprofen]
remaining activity at 1.25 µM ([1]; Well no.=4879): 96.8%
remaining activity at 3.75 µM ([2]; Well no.=4879): 97.2%

CC(=O)N[C@H]1[C@H]([C@H](O)[C@H](O)CO)OC(C(=O)O)=C[C@@H]1NC(=N)N [Zanamivir]
remaining activity at 1.25 µM ([1]; Well no.=5883): 103%
remaining activity at 3.75 µM ([2]; Well no.=5883): 104%

CCCOc1ccccc1-c1nc2[nH]nnc2c(=O)[nH]1 [Zaprinast]
remaining activity at 1.25 µM ([1]; Well no.=1342): 99.6%
remaining activity at 1.25 µM ([1]; Well no.=2188): 92%
remaining activity at 3.75 µM ([2]; Well no.=1342): 101%
remaining activity at 3.75 µM ([2]; Well no.=2188): 95.6%

COc1cc(-c2ccc(=O)[nH]n2)ccc1OC(F)F [Zardaverine]
remaining activity at 1.25 µM ([1]; Well no.=1438): 95.5%
remaining activity at 1.25 µM ([1]; Well no.=2190): 97.5%
remaining activity at 3.75 µM ([2]; Well no.=1438): 94.9%
remaining activity at 3.75 µM ([2]; Well no.=2190): 98.2%
